According to article PMC3177990 (Biochemistry, 2011):

Target: human secretin receptor (Homo sapiens, UniProt P47872)
Assay: cAMP responses in CHO-SecR cells
Type: cell-based
Conditions: Figure 4, responses not significantly different from 1

Sequence of human secretin receptor (P47872 23-440): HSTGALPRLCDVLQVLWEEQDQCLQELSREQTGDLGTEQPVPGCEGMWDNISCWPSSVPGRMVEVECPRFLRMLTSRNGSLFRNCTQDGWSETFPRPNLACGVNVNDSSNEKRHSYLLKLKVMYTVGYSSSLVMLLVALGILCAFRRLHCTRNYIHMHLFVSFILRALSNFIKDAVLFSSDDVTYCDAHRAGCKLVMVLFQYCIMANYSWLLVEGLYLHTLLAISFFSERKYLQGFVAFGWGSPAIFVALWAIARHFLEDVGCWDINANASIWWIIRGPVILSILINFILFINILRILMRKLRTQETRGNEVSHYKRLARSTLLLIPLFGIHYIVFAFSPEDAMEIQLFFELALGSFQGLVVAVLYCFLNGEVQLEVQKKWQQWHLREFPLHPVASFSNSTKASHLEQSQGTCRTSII

## cyclic [Glu^16,Lys^20][Tyr^10]human secretin(1-27) [compound 14]
  agonist character, cAMP responses compared with [Y^10]sec(1-27) (1): full agonists

## cyclic [Glu^16,Lys^20]human secretin(1-27) [compound 15]
  agonist character, cAMP responses compared with [Y^10]sec(1-27) (1): full agonists
